Experimental data published in ChEMBL document CHEMBL1909046, “DrugMatrix in vitro pharmacology data”.

Key:
[1] = target: Mitogen-activated protein kinase 14 (Homo sapiens, UniProt Q16539); design: species or system Escherichia coli;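 also: inhibition of p38alpha enzyme activity in a biochemical kinase assay, with myelin basic protein serving as substrate; in other assays of this panel Not Active means under 50% inhibition at 10 µM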
[2] = target: T1, Leukotriene C4 synthase (Cavia porcellus, UniProt A6XA80); format: tissue-based, Lung;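 also: enzyme inhibition assay of leukotriene C4 synthase, using LTA4 as the substrate; in other assays of this panel Not Active means under 50% inhibition at 10 µM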
T1 sequence (A6XA80 whole entry): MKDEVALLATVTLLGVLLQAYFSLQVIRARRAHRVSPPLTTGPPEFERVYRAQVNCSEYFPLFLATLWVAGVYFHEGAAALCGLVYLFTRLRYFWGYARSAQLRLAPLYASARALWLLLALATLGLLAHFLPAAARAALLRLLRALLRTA

[3] = target: Insulin receptor (Rattus norvegicus, UniProt P15127); format: cell membranes, Wistar, Liver, Membrane; also: in other assays of this panel Not Active means under 50% inhibition at 10 µM
Chain of Insulin receptor (P15127 27-759 limits assumed): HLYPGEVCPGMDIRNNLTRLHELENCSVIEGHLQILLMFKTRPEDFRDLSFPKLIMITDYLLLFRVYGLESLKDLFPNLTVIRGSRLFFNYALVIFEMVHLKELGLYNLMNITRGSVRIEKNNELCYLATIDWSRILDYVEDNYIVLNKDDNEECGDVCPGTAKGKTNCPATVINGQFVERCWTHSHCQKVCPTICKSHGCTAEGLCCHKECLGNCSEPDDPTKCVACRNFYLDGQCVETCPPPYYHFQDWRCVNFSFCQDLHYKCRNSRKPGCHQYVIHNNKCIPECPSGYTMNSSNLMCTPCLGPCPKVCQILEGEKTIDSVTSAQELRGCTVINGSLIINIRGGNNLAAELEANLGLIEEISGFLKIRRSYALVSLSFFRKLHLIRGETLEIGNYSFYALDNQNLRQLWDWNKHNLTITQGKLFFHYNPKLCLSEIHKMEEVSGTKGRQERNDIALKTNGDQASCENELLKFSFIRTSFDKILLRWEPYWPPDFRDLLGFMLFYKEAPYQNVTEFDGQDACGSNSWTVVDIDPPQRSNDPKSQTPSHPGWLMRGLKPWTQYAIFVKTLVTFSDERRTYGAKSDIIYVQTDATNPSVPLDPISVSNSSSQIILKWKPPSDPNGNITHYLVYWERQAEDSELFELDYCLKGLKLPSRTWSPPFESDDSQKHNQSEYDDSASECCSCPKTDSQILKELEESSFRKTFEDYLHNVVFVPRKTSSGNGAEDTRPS
Chain of Insulin receptor (P15127 764-1383 limits assumed): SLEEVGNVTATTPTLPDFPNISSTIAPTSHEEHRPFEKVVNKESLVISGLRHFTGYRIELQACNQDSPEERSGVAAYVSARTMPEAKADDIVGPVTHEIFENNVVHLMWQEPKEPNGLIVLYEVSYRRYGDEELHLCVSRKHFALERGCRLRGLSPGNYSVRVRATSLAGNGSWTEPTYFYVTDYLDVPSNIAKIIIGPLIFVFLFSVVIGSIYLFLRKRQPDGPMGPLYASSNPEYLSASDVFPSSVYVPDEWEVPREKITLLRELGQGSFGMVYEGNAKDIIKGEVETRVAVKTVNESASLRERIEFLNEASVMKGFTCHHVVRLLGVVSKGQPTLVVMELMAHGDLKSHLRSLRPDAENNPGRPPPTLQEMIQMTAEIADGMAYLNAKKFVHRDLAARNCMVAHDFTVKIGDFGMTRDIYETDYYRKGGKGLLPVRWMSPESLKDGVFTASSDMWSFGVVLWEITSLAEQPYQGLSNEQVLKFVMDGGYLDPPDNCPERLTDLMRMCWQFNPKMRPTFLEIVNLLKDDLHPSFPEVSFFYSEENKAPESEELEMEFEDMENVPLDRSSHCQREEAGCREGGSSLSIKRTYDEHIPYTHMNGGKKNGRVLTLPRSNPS

[4] = target: Histamine H2 receptor (Homo sapiens, UniProt P25021); format: cell membranes, CHO-K1, Membrane; also: in other assays of this panel Not Active means under 50% inhibition at 10 µM
Chain of Histamine H2 receptor (P25021 whole entry): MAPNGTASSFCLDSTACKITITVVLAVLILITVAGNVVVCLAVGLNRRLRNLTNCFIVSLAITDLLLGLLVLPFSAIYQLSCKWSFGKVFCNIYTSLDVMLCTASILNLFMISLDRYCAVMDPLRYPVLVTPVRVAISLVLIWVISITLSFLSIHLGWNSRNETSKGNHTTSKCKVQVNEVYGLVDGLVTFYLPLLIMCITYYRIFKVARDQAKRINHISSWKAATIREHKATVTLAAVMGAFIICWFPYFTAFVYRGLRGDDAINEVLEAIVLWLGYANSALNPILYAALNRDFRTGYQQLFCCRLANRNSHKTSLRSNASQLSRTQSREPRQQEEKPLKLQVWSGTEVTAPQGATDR

[5] = DRUGMATRIX: Phosphodiesterase PDE3 enzyme inhibition (substrate: [3H]cAMP + cAMP); format: tissue-based, Homo sapiens; settings: platelet; Not Active = under 50% inhibition at 10 µM
[6] = target: Platelet-activating factor receptor (Homo sapiens, UniProt P25105); experiment: biochemical; format: tissue-based; settings: platelet; also: in other assays of this panel Not Active means under 50% inhibition at 10 µM
Chain of Platelet-activating factor receptor (P25105 whole entry): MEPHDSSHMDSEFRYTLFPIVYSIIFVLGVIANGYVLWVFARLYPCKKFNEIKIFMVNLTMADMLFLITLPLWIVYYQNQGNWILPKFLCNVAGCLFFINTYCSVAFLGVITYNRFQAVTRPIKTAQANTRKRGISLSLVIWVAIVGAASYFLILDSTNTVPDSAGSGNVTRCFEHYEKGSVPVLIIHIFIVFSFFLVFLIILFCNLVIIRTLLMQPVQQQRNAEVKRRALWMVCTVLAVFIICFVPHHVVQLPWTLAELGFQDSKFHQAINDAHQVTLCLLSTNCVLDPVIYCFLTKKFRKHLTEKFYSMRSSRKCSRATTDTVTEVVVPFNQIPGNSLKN

[7] = DRUGMATRIX: GABAA, Muscimol, Central radioligand binding (ligand: [3H] Muscimol); format: cell membranes, Rattus norvegicus, Wistar, Brain, Membrane; settings: Not Active = under 50% inhibition at 10 µM

Chain of Mitogen-activated protein kinase 14 (Q16539 whole entry): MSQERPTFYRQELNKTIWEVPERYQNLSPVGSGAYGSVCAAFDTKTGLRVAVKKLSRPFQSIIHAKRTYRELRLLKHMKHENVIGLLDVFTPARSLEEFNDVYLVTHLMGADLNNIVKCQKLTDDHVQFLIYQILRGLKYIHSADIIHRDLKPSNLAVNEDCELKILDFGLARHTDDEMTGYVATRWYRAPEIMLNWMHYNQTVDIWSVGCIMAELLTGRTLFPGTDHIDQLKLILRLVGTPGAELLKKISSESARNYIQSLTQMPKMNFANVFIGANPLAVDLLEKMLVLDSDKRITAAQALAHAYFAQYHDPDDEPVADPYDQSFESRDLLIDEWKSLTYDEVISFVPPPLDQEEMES

| Compound | IC50 ([1]; read-out: IC50) [µM] | IC50 [2] | IC50 [3] | IC50 ([4]; read-out: IC50) [µM] | Ki ([4]; read-out: Ki) [µM] | IC50 [5] | Ki [5] | IC50 [6] | IC50 [7] | Ki [7] | IC50 [1] | IC50 ([4]; cho-k1) | Ki [1] | Ki [2] | Ki [3] | Ki ([4]; cho-k1) | Ki [6] |
| --- | --- | --- | --- | --- | --- | --- | --- | --- | --- | --- | --- | --- | --- | --- | --- | --- | --- |
| C[C@@H]1C[C@H]2[C@@H]3CCC4=CC(=O)C=C[C@]4(C)C3=CC[C@]2(C)[C@H]1C(=O)CN1CCN(c2cc(N3CCCC3)nc(N3CCCC3)n2)CC1 [TIRILAZAD] | 7.41 | Not Active | Not Active | 14.1 | 13.9 | Not Active | Not Active | Not Active | Not Active | Not Active |  |  |  |  |  |  |  |
| COc1ncnc(NS(=O)(=O)c2ccc(N)cc2)c1OC [SULFADOXINE] |  | Not Active | Not Active |  |  | Not Active | Not Active | Not Active | Not Active | Not Active | Not Active | Not Active |  |  |  |  |  |
| STANNOUS FLUORIDE |  | Not Active | Not Active |  |  | Not Active | Not Active | Not Active | Not Active | Not Active | Not Active | Not Active | Not Active | Not Active | Not Active | Not Active | Not Active |
| CC1=C(CC(=O)O)c2cc(F)ccc2/C1=C\c1ccc(S(C)(=O)=O)cc1 [EXISULIND] |  | Not Active | Not Active |  |  | Not Active | Not Active | Not Active | Not Active | Not Active | Not Active | Not Active |  |  |  |  |  |
| NC[C@H]1O[C@H](O[C@H]2[C@H](O)[C@@H](O[C@H]3O[C@H](CO)[C@@H](O)[C@H](N)[C@H]3O)[C@H](N)C[C@@H]2N)[C@H](N)C[C@@H]1O [TOBRAMYCIN] |  | Not Active | Not Active |  |  | Not Active | Not Active | Not Active | Not Active | Not Active | Not Active | Not Active |  |  |  |  |  |
| O=C(O)C(Cl)(Cl)Cl [TRICHLOROACETIC ACID] |  | Not Active | Not Active |  |  | Not Active | Not Active | Not Active | Not Active | Not Active | Not Active | Not Active |  |  |  |  |  |
